Test results published in patent US9266878B2, “Phosphatidylinositol 3-kinase inhibitors” (Gilead Calistoga LLC, priority 2012, dated 2016).

Key:
Test in all cases: Enzymatic activity of PI3K isoforms, TR-FRET assay (PIP3 formation)
Assay type in all cases: biochemical
PI3Kδ = PI3Kδ (Homo sapiens (Human), UniProt O00329); details: bound given in nM
Summary of the method: (§1)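 After 30 min at 25° C, reactions were quenched with 10 mM EDTA plus 10 nM labeled-PIP3 and 35 nM Europium-GRP-1, and TR-FRET was read (Ex 340, Em 615/665 nm). Enzymes were purified recombinant heterodimers; product PIP3 competes off the labeled tracer. Values given as IC50, nM.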

PI3Kα = PI3Kα (Homo sapiens (Human), UniProt P42336); details: bound given in uM
Summary of the method: as §1

PI3Kβ = PI3Kβ (Homo sapiens (Human), UniProt P42338)
Summary of the method: (§2)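 IC50 (nM) reflects inhibition of PIP3 formation by purified recombinant heterodimeric PI3K, measured as loss of TR-FRET signal. The read-out comes from competition between enzyme-made PIP3 and labelled PIP3 for binding to the GRP-1 pleckstrin homology domain.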

PI3Kγ = PI3Kγ (Homo sapiens (Human), UniProt P48736)
Summary of the method: as §2

PI3Kβ, sequence (P42338 whole entry, the tested form may be a part): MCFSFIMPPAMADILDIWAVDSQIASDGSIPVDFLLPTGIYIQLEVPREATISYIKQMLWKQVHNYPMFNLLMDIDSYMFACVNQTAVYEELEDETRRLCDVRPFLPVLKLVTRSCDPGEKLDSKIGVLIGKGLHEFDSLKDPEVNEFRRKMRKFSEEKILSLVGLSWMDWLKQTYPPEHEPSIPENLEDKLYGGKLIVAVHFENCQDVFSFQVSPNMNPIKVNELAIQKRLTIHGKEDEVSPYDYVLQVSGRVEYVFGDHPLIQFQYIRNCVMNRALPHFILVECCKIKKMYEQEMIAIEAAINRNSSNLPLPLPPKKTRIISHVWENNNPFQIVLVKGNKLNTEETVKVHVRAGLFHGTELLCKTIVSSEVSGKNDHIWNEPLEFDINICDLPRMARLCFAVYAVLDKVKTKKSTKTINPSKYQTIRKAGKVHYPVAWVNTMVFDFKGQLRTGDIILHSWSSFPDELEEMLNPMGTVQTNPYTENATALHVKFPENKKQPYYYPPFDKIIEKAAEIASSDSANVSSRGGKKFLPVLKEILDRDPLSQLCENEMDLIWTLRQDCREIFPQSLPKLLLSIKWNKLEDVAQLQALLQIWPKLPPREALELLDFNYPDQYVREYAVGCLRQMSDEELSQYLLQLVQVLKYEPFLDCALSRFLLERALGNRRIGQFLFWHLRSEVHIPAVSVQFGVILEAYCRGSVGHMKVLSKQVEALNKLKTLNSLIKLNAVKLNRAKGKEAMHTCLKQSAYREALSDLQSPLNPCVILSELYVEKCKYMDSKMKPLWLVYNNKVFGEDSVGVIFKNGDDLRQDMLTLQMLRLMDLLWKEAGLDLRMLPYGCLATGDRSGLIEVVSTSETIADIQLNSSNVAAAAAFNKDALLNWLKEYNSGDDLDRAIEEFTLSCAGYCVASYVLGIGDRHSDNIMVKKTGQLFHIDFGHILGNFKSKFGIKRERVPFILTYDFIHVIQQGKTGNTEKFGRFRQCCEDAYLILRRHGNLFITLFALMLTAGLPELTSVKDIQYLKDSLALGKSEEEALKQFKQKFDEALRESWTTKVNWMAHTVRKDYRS
PI3Kβ, sequence (P27986 whole entry partner, the tested form may be a part): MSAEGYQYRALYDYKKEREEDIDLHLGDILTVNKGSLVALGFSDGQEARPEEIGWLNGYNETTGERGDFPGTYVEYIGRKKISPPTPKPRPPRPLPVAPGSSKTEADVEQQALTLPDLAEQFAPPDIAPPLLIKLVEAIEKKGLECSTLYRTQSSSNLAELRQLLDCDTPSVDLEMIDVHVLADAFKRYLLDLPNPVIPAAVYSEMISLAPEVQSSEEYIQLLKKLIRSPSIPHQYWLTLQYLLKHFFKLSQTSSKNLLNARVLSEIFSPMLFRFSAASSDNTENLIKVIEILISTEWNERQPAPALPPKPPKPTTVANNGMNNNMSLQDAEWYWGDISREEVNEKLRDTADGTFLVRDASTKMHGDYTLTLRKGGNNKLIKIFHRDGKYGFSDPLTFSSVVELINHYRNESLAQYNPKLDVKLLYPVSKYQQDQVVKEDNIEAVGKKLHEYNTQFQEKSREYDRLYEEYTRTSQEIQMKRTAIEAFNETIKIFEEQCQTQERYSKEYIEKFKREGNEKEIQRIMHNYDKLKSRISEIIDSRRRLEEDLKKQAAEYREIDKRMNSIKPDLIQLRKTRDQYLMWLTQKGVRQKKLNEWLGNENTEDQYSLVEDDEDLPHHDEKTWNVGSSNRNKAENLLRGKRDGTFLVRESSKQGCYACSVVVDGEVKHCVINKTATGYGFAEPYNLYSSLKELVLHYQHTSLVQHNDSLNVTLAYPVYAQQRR
PI3Kδ, sequence (O00329 whole entry): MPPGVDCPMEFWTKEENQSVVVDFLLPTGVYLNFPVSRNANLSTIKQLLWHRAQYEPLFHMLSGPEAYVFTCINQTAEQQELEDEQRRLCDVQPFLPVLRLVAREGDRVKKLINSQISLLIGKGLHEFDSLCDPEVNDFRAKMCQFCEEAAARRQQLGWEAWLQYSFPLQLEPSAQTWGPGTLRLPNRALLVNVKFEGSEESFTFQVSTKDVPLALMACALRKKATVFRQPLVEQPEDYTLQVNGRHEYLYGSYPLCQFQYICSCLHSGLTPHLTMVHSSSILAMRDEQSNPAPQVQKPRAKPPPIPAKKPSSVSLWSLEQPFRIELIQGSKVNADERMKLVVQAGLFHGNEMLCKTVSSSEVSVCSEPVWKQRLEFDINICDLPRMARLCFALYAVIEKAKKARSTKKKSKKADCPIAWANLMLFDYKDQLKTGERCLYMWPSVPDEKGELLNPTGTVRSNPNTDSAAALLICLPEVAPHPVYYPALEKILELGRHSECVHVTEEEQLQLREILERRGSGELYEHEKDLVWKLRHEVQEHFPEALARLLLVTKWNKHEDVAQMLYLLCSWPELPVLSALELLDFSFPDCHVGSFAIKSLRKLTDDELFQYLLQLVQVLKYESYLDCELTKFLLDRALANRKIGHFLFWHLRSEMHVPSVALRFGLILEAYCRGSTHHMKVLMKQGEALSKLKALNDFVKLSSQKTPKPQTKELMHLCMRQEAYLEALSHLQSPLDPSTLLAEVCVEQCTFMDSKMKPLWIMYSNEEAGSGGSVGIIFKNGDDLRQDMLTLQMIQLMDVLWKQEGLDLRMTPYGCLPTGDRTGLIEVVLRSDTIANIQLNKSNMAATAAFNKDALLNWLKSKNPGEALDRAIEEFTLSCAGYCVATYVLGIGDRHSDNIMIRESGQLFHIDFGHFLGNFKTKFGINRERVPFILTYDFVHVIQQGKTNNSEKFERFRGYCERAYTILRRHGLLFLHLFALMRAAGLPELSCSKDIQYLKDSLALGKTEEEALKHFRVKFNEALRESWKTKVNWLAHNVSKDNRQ
PI3Kδ, sequence (P27986 whole entry partner): as the sequence (P27986 whole entry partner, the tested form may be a part) above
PI3Kγ, sequence (P48736 whole entry): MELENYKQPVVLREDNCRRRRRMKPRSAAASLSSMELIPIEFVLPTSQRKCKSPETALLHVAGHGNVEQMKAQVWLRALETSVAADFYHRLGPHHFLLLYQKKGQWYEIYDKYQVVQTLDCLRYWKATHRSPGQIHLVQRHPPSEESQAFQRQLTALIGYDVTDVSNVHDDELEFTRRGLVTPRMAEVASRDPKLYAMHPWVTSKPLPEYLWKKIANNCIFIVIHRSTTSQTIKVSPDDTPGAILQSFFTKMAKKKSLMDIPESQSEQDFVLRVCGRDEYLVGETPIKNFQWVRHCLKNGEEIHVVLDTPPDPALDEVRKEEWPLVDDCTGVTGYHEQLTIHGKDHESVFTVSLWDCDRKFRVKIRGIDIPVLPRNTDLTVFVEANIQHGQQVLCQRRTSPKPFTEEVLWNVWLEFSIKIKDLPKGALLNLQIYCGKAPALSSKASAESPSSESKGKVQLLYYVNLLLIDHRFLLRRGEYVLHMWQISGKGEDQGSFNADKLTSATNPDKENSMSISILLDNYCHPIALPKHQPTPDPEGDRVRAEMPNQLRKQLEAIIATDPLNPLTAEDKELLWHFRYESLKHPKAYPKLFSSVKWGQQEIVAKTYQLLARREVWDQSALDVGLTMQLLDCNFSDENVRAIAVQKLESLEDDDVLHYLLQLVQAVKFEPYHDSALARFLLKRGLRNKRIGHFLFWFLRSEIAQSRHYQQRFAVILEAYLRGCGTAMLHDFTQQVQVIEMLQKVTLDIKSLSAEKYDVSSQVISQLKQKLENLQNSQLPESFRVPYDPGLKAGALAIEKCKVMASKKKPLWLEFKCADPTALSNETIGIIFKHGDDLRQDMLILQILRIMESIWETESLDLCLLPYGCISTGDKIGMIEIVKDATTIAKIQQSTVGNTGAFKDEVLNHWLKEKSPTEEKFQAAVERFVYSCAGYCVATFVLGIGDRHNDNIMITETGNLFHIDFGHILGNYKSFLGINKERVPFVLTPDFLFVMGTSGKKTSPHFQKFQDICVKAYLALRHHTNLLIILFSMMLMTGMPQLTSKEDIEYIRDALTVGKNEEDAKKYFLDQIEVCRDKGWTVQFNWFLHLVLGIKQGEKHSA
PI3Kγ, sequence (Q8WYR1 whole entry partner): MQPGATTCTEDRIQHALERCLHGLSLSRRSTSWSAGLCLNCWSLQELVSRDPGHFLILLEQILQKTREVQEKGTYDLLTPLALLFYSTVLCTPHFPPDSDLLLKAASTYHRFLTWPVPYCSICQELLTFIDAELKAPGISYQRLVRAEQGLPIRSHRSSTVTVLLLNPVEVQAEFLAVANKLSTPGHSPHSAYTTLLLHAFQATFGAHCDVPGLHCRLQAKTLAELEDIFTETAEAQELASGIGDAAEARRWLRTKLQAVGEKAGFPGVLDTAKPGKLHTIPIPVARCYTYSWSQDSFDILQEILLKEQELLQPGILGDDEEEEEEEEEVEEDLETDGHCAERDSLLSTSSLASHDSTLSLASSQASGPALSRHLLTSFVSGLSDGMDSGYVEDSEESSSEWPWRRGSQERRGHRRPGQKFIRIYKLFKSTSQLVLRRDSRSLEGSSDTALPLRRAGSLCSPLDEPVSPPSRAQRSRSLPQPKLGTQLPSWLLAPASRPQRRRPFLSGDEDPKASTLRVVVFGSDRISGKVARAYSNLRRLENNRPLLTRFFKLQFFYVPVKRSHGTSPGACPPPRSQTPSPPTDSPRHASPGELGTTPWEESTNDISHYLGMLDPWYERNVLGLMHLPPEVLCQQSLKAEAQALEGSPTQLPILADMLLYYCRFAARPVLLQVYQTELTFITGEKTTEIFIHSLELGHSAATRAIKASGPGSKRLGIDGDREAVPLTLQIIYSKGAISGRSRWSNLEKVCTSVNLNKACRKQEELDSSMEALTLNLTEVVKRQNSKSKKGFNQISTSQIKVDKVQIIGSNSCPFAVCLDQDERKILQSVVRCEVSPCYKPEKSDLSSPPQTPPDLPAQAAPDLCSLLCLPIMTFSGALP

Compound	IC50 (PI3Kδ) [nM]	IC50 (PI3Kα) [µM]	IC50 (PI3Kβ; bound given in uM) [µM]	IC50 (PI3Kγ; bound given in uM) [µM]	IC50 (PI3Kβ; bound given in nM) [µM]	IC50 (PI3Kγ; bound given in nM) [µM]
C[C@H](Nc1ncnc(N)c1C#Cc1cccnn1)c1nc2cccc(Cl)c2c(=O)n1-c1ccccc1 [Compound 14a, (S)-2-(1-(6-amino-5-(pyridazin-3-ylethynyl)pyrimidin-4-ylamino)ethyl)-5-chloro-3-phenylquinazolin-4(3H)-one]		> 1	> 1	> 1		
C[C@H](Nc1ncnc(N)c1C#Cc1ccc(OC(F)(F)F)cc1)c1nc2cccc(Cl)c2c(=O)n1-c1cc(F)cc(F)c1 [Compound 26a, (S)-2-(1-(6-amino-5-((4-(trifluoromethoxy)phenyl)ethynyl)pyrimidin-4-ylamino)ethyl)-5-chloro-3-(3,5-difluorophenyl)quinazolin-4(3H)-one]		> 1	> 1	> 1		
Nc1ncnc(N2CCCC[C@H]2c2nc3cccc(Cl)c3c(=O)n2-c2ccccc2)c1C#Cc1ccccn1 [Compound 36a, (S)-2-(1-(6-amino-5-(pyridin-2-ylethynyl)pyrimidin-4-yl)piperidin-2-yl)-5-chloro-3-phenylquinazolin-4(3H)-one]		> 1	> 1	> 1		
C[C@H](Nc1ncnc(N)c1C#Cc1ccc(F)cn1)c1nc2cccc(Cl)c2c(=O)n1-c1cccc(S(C)(=O)=O)c1 [Compound 58a, (S)-2-(1-((6-amino-5-((5-fluoropyridin-2-yl)ethynyl)pyrimidin-4-yl)amino)ethyl)-5-chloro-3-(3-(methylsulfonyl)phenyl)quinazolin-4(3H)-one]		> 1	> 1	> 1		
C[C@H](Nc1ncnc(N)c1C#Cc1ccc(F)cn1)c1nc2cccc(Cl)c2c(=O)n1-c1cccc(C(C)(C)C)c1 [Compound 59a, (S)-2-(1-((6-amino-5-((5-fluoropyridin-2-yl)ethynyl)pyrimidin-4-yl)amino)ethyl)-3-(3-(tert-butyl)phenyl)-5-chloroquinazolin-4(3H)-one]		> 1	> 1	> 1		
CC(C)OC(=O)c1ccc(C#Cc2c(N)ncnc2N[C@@H](C)c2nc3cccc(Cl)c3c(=O)n2-c2ccccc2)nc1 [Compound 137a, (S)-isopropyl 6-((4-amino-6-((1-(5-chloro-4-oxo-3-phenyl-3,4-dihydroquinazolin-2-yl)ethyl)amino)pyrimidin-5-yl)ethynyl)nicotinate]		> 1	> 1	> 1		
Cc1cccnc1C#Cc1c(N)ncnc1N[C@@H](C)c1nc2cccc(Cl)c2c(=O)n1-c1ccccc1 [Compound 143a, (S)-2-(1-((6-amino-5-((3-methylpyridin-2-yl)ethynyl)pyrimidin-4-yl)amino)ethyl)-5-chloro-3-phenylquinazolin-4(3H)-one]	< 100	> 1			< 0.1	
C[C@H](Nc1ncnc(N)c1C#Cc1cc(CO)ccn1)c1nc2cccc(Cl)c2c(=O)n1-c1ccccc1 [Compound 154a, (S)-2-(1-((6-amino-5-((4-(hydroxymethyl)pyridin-2-yl)ethynyl)pyrimidin-4-yl)amino)ethyl)-5-chloro-3-phenylquinazolin-4(3H)-one]	< 100				< 0.1	< 0.1
C[C@H](Nc1ncnc(N)c1C#Cc1cccc(CO)n1)c1nc2cccc(Cl)c2c(=O)n1-c1ccccc1 [Compound 155a, (S)-2-(1-((6-amino-5-((6-(hydroxymethyl)pyridin-2-yl)ethynyl)pyrimidin-4-yl)amino)ethyl)-5-chloro-3-phenylquinazolin-4(3H)-one]	< 100				> 0.001	< 0.1
CC(O)c1cccc(C#Cc2c(N)ncnc2N[C@@H](C)c2nc3cccc(Cl)c3c(=O)n2-c2ccccc2)n1 (stereo partly drawn) [Compound 157a, 2-((1S)-1-((6-amino-5-((6-(1-hydroxyethyl)pyridin-2-yl)ethynyl)pyrimidin-4-yl)amino)ethyl)-5-chloro-3-phenylquinazolin-4(3H)-one]	< 100	> 1			< 0.1	
C[C@H](Nc1ncnc(N)c1C#Cc1cc(C(=O)O)ccn1)c1nc2cccc(Cl)c2c(=O)n1-c1ccccc1 [Compound 160a, (S)-2-((4-amino-6-((1-(5-chloro-4-oxo-3-phenyl-3,4-dihydroquinazolin-2-yl)ethyl)amino)pyrimidin-5-yl)ethynyl)isonicotinic acid]	< 100			> 1	< 0.1	
Cc1ccc(C#Cc2c(N)ncnc2N[C@@H](C)c2nc3cccc(Cl)c3c(=O)n2-c2cc(F)cc(F)c2)nc1 [Compound 164a, (S)-2-(1-((6-amino-5-((5-methylpyridin-2-yl)ethynyl)pyrimidin-4-yl)amino)ethyl)-5-chloro-3-(3,5-difluorophenyl)quinazolin-4(3H)-one]	< 100	> 1	> 1			

The next lines start with the values.

IC50 (PI3Kδ) [nM]	IC50 (PI3Kα) [µM]	IC50 (PI3Kβ; bound given in uM) [µM]	IC50 (PI3Kγ; bound given in uM) [µM]	IC50 (PI3Kβ; bound given in nM) [µM]	IC50 (PI3Kγ; bound given in nM) [µM]	Compound
< 100	> 1	> 1	> 1			C[C@H](Nc1ncnc(N)c1C#Cc1ccc(F)cn1)c1nc2cccc(Cl)c2c(=O)n1-c1cc(F)cc(F)c1 (single isomer, unassigned) [Compound 9a]
< 100	> 1	> 1	> 1			COc1cccc(-n2c([C@H](C)Nc3ncnc(N)c3C#Cc3ncccc3F)nc3cccc(Cl)c3c2=O)c1C [81-1a]
< 100	> 1	> 1	> 1			COc1cccc(-n2c([C@H](C)Nc3ncnc(N)c3C#Cc3ncccc3F)nc3cccc(Cl)c3c2=O)c1C [81-2a]
< 100	> 1	> 1	> 1			COC[C@@H](Nc1ncnc(N)c1C#Cc1ccc(F)cn1)c1nc2cccc(Cl)c2c(=O)n1-c1cc(F)cc(F)c1 [146b]
< 100			> 1	< 0.1		C[C@H](Nc1ncnc(N)c1C#Cc1ccccn1)c1nc2cccc(Cl)c2c(=O)n1-c1cccc(C(N)=O)c1 [Compound 38a, (S)-3-(2-(1-(6-amino-5-(pyridin-2-ylethynyl)pyrimidin-4-ylamino)ethyl)-5-chloro-4-oxoquinazolin-3(4H)-yl)benzamide]
< 100				< 0.1	< 0.1	C[C@H](Nc1ncnc(N)c1C#Cc1ccc2nc(N)sc2c1)c1nc2cccc(Cl)c2c(=O)n1-c1ccccc1 [Compound 46a, (S)-2-(1-(6-amino-5-((2-aminobenzo [d]thiazol-6-yl)ethynyl)pyrimidin-4-ylamino)ethyl)-5-chloro-3-phenylquinazolin-4(3H)-one]
< 100				< 0.1	< 0.1	C[C@H](Nc1ncnc(N)c1C#Cc1cn[nH]c1)c1nc2cccc(Cl)c2c(=O)n1-c1ccccc1 [Compound 49a, (S)-2-(1-(5-((1H-pyrazol-4-yl)ethynyl)-6-aminopyrimidin-4-ylamino)ethyl)-5-chloro-3-phenylquinazolin-4(3H)-one]
< 100				< 0.1	< 0.1	C[C@H](Nc1ncnc(N)c1C#Cc1ccccc1)c1nc2cccc(Cl)c2c(=O)n1-c1ccccc1 [Compound 51a, (S)-2-(1-(6-amino-5-(phenylethynyl)pyrimidin-4-ylamino)ethyl)-5-chloro-3-phenylquinazolin-4(3H)-one]
